Measurements from patent publication US20220016174A1, “FOETAL MESENCHYMAL STEM CELL COMPOSITION OF ALLOGENIC ORGIN, TREATMENT METHOD AND USE THEREOF IN MASTITIS IN MILK-PRODUCING ANIMALS, INCLUDING CATTLE” (UNIVERSIDAD DE CHILE, priority 2018, published 2022).

How the values were obtained:
[1] = test system: Holstein Friesian cows challenged with S. aureus; assay: Clinical and productive variables in cows challenged with S. aureus (induced mastitis); assay type: in vivo
[2] = test system: S. aureus; assay: Bacteriological analysis (CFU) in milk of cows challenged with S. aureus; assay type: in vivo, Staphylococcus aureus
Method: 1 mL of PBS was inoculated into the right quarters as a control. The NEG group (without therapy) was treated on days 4 and 10 with a 5 mL Ringer Lactate solution via the teat canal in the two infected quarters. The ATB group (antibiotic therapy) was treated with a commercial suspension of 50 mg of pirlimycin on experimental days 4 and 5 via the teat canal in the two infected quarters. The MSC group (MSC therapy) was administered with a 2.5×10^7 suspension of MSC in 3 ml of Lactated Ringer via the teat canal in the two infected quarters. From the day of the challenge and daily during 15 days, the cows were clinically evaluated and milk samples were collected daily to determine SCC and CFU (FIG. 2B). The clinical evaluation and the collection of milk samples were carried out as detailed below.
Milk samples prior to milking were collected aseptically from all cows following the protocols of the International Dairy Federation (1985) on three consecutive days prior to the experimental challenge (FIG. 2B). Briefly, before milking, the quarters and teats were cleaned using a brush or washed with water in case of excessive presence of mud or manure. Then the teats and especially the tips of the teats were disinfected using paper towels with 70% alcohol. Three or four milk streams were discarded to reduce the possibility of contamination with pathogens present in the teat canal. Each of the teats, starting with the most distant ones, were disinfected again using a 70% alcohol swab. Previously labelled sample bottles were positioned at a 45-degree angle below the nipple without touching it to prevent contamination. Nearby teats were first sampled and then distant teats, filling one third of the vial. The samples were refrigerated or frozen for analysis of SCC or CFU, respectively. Only cows with three negative consecutive cultures were used in the study. […]
From the day of the challenge and daily for 15 days, milk samples were collected for determination of CFU. The CFU values were subsequently expressed as a linear score (LS-CFU) by means of logarithmic transformation (LS=LOGN). […]

Structure (SMILES): CC[C@@H]1CCN[C@H](C(=O)N[C@@H]([C@H]2O[C@H](SC)[C@H](O)[C@@H](O)[C@H]2O)[C@H](C)Cl)C1 [ATB, pirlimycin]
- average daily milk production [1]: 16.7±0.8 I
- decrease in milk production between days 5 and 7 [1]: 2.1
- Milk yield reduction days 5-7 (Its.) ([1]; days 5-7): 2.1 Its.
- Milk yield (Its.) ([1]; n=5 each group, mean ± SD): 16.7 ± 0.8 Its.
- Rectal temperature (° C.) ([1]; n=5 each group, mean ± SD): 38.1 ± 0.3 °C
- Respiratory rate (bpm) ([1]; n=5 each group, mean ± SD): 28.6 ± 2.5 bpm
- Ruminal frequency (in 2 min) ([1]; n=5 each group, mean ± SD): 2.6 ± 0.3
- Termography BL (° C.) ([1]; n=5 each group, mean ± SD): 34.3 ± 0.6 °C
- Termography BR (° C.) ([1]; n=5 each group, mean ± SD): 34.2 ± 0.5 °C
- Termography FL (° C.) ([1]; n=5 each group, mean ± SD): 33.8 ± 0.7 °C
- Termography FR(° C.) ([1]; n=5 each group, mean ± SD): 33.7 ± 0.7 °C
- LS-CFU (linear score of CFU in milk) ([2]; day 3 post-challenge (before treatment on day 4)): −0.7
- LS-CFU (linear score of CFU in milk) ([2]; day 8 post-challenge): −0.7
- LS-CFU (linear score of CFU in milk) ([2]; day 9 post-challenge): −0.7
